Experimental data: ChEMBL document CHEMBL1201862, “PubChem BioAssay data set” (2004)
Active and inactive are the calls of the source.

Tests used:
[1] = target: T1, Endoribonuclease toxin MazF (Escherichia coli K-12, UniProt P0AE70); experiment: activation of MazEF endoribonuclease cleavage – biochemical, fluorescence, single-stranded RNA substrate, uHTS hits, dose response (AID 588481); format: functional
T1 sequence (P0AE70 whole entry): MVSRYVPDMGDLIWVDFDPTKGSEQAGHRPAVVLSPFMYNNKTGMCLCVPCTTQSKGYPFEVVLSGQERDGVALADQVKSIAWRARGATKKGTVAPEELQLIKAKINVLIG

[2] = target: T2, Carboxy-terminal domain RNA polymerase II polypeptide A small phosphatase 1 (Homo sapiens, UniProt Q9GZU7); experiment: CTDSP1 inhibitors, concentration-response, biochemical, absorbance readout, ultra-high-throughput screen actives (AID 540297); format: functional
T2 sequence (Q9GZU7 whole entry): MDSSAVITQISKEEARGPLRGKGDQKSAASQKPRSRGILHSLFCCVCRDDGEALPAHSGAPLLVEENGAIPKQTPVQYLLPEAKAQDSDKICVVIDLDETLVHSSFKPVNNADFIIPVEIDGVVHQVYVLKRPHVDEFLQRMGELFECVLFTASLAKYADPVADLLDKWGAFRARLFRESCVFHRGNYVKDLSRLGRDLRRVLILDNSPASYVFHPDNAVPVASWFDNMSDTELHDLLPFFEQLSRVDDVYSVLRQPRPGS

[3] = target: T1, Endoribonuclease toxin MazF; experiment: substrate-only fluorescence increase artefacts – biochemical, single-stranded RNase substrate, counter-screen for MazEF activator project, dose response (AID 588502); format: functional
[4] = A549 cell cytotoxicity, dose response, cytotoxicity control, plate reader, cherry-pick, antagonist series (AID 743412); format: functional, cell-based
[5] = blockade of melanocortin 4 receptor signaling – cell-based, plate reader, cherry pick, counter-screen for LGR2 antagonist project, dose response (AID 743444); format: functional;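 further: transfected HEK 293 cells stimulated with alpha-MSH peptide; potency of inhibitors of the alpha-MSH evoked signal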
[6] = viability loss in HEK293 cells – cell-based, plate reader, cherry-picked samples, cytotoxicity control, dose response (AID 743446); format: functional
[7] = toxicity toward HepG2 liver cells – cell-based, plate reader, cherry-pick, antagonist series, cytotoxicity control, dose response (AID 743416); format: functional
[8] = blockers of bursicon-stimulated LGR2 cAMP reporter – cell-based, HEK293, CRE-luciferase reporter, cherry pick, set 2, dose response (AID 743343); format: functional;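 further: transfected cells were stimulated with diluted bursicon conditioned medium after compound addition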
Aminopeptidase N = target: T3, Aminopeptidase N (Plasmodium falciparum FcB1/Columbia, UniProt O96935); experiment: malaria alanyl aminopeptidase activity blockers – biochemical, fluorogenic H-Leu-NHMec substrate, 1536-well (AID 1445); parameters: species or system Plasmodium falciparum 3D7, 3D7
T3 sequence (O96935 whole entry): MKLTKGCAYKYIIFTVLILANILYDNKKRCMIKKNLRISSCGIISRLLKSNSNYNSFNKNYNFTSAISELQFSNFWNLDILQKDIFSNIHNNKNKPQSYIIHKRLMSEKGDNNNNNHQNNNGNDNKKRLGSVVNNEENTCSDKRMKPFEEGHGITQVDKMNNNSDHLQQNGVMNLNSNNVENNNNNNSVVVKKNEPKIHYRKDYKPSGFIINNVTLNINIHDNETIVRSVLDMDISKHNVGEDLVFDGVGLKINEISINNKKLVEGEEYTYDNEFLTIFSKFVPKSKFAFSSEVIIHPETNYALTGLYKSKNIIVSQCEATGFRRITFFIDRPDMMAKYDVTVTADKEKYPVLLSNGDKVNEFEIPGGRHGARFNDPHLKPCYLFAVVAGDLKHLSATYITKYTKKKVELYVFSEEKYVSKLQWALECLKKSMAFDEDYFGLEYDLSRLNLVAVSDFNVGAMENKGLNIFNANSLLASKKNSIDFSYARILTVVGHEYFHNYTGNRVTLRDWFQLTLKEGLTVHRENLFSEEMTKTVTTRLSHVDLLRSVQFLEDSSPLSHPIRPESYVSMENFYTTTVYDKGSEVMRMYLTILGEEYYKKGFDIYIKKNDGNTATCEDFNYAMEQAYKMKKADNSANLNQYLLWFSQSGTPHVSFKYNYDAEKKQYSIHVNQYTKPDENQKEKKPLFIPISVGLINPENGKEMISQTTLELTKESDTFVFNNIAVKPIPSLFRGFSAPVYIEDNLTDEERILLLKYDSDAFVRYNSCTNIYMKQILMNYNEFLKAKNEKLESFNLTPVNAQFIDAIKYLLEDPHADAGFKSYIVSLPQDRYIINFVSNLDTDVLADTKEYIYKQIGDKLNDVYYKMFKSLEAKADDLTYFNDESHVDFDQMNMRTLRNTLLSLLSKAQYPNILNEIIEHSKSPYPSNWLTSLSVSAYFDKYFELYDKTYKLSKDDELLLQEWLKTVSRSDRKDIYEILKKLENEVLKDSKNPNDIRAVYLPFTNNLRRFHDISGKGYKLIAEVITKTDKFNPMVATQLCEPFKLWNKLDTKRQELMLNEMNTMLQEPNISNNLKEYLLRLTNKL

[9] = HIV-1 Vif–A3G interaction blockers – biochemical, TR-FRET, GST-Vif 1-94, biotin-A3G peptide, dose response retest, primary screen (AID 1117319); format: functional;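 further: TR-FRET signal of purified GST-Vif binding a biotinylated A3G peptide; inhibitors lower the FRET signal by blocking Vif and A3G binding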
[10] = P. falciparum Dd2 growth inhibitors, dose response, SYBR Green, cherry-picked samples (AID 1159567); format: functional, cell-based
[11] = toxicity to human hepatoma HepG2 cells – cell-based, cherry-picked samples, cytotoxicity control, dose response (AID 1159577); format: functional

Cc1ccc(C=C2C(=O)c3ccccc3C2=O)o1
EC50 [1]: > 99 µM (inactive) | IC50 [2]: 6.25 µM (active) | EC50 [3]: 85.2 µM (inactive)

COc1ccc2oc(C(=O)N3CCc4ccccc43)c(C)c2c1
AC50 [4]: 20 µM (active) | AC50 [5]: 6.24 µM (active) | AC50 [6]: 33.9 µM (active) | AC50 [7]: 21.5 µM (active) | AC50 [8]: 7.5 µM (active)

O=C(CSc1nc2c(c(=O)n1-c1ccc(Cl)cc1)SCC2)NCC1CCCO1 (stereo not given)
IC50 (Aminopeptidase N): 58.3 µM (active)

COCCN(Cc1cc2ccccc2nc1O)C(=O)c1ccccc1OC
IC50 [9]: > 100 µM (active)

COc1ccc(CCN2C(=O)c3cccc4c(C(=O)N5CCCCC5)ccc(c34)C2=O)cc1OC
AC50 [4]: > 52 µM (inactive) | AC50 [5]: 18 µM (active) | AC50 [6]: 16.7 µM (active) | AC50 [7]: > 52 µM (inactive) | AC50 [8]: 21.6 µM (active)

Nc1c(C(=O)C2CC2)sc2nc(-c3cccs3)cc(C(F)(F)F)c12
EC50 [1]: > 99 µM (inactive) | EC50 [3]: 10.6 µM (active)

Cc1ccc(/C=C2\SC(=S)N(CCC(=O)Nc3cccnc3)C2=O)cc1
EC50 [1]: > 99 µM (inactive) | EC50 [3]: > 99 µM (inactive)

O=S(=O)(c1ccccc1F)N1C[C@@H]2N[C@H](C1)[C@H]2c1ccc(/C=C/c2ccccc2)cc1
AC50 [10]: 3.4 µM (active) | AC50 [11]: 16.1 µM (active)

N#C[C@@H]1[C@H](c2ccccc2-c2cccc(F)c2)[C@H](CO)N1C(=O)NC1CCCC1
AC50 [10]: 6.42 µM (active) | AC50 [11]: > 39 µM (inactive)

C[C@@H]1CN([C@@H](C)CO)S(=O)(=O)c2ccc(/C=C/c3ccccc3)cc2O[C@H]1CN(C)Cc1cncnc1
AC50 [10]: 5.17 µM (active) | AC50 [11]: > 39 µM (inactive)
